Twelve compounds from ChEMBL document CHEMBL5465560, “Selectivity Literature for EUbOPEN Chemogenomic Library” (2024) can be followed below.

For test [1], the target named is Calcium/calmodulin-dependent protein kinase kinase 2 (Homo sapiens) (UniProt Q96RR4). In words: Selectivity interaction (KinomeScan (DiscoverX)) EUB0000666a CAMKK2. The following applies: at 10 µM.
For test [2], the target named is T1, Serine/threonine-protein kinase haspin (Homo sapiens) (UniProt Q8TF76).
T1 sequence (whole entry): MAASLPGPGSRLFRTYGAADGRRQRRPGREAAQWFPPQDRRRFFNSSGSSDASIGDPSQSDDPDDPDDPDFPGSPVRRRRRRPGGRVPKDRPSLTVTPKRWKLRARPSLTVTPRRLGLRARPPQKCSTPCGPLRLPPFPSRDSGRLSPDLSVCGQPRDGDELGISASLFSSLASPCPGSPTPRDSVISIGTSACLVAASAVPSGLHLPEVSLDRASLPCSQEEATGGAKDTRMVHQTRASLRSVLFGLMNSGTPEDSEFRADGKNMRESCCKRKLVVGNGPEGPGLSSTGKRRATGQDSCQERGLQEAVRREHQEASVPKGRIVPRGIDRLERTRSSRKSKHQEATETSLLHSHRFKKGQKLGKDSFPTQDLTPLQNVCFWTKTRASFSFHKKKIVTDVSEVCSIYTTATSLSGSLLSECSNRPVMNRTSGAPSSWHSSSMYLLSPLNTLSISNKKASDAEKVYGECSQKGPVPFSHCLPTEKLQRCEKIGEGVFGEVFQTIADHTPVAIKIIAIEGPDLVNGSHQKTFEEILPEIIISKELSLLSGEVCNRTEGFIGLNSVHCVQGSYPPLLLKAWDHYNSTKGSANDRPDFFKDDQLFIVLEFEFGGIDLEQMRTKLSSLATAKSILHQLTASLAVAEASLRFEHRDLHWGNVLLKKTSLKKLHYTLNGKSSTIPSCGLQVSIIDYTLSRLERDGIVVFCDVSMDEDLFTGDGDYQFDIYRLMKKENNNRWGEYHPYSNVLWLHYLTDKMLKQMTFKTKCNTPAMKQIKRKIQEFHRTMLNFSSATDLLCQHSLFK
In words: Selectivity interaction (KinomeScan (DiscoverX)) EUB0000607a GSG2. The following applies: at 10 µM.

The target in test [3] is Mitogen-activated protein kinase kinase kinase 10 (Homo sapiens) (UniProt Q02779). In words: Selectivity interaction (KinomeScan (DiscoverX)) EUB0000607a MAP3K10. The following applies: at 10 µM.
Test [4] concerns the target Mitogen-activated protein kinase 9 (Homo sapiens, UniProt P45984). The following applies: at 10 µM.
The target of test [5] is T2, Histone-arginine methyltransferase CARM1 (Homo sapiens) (UniProt Q86X55).
T2 sequence (whole entry): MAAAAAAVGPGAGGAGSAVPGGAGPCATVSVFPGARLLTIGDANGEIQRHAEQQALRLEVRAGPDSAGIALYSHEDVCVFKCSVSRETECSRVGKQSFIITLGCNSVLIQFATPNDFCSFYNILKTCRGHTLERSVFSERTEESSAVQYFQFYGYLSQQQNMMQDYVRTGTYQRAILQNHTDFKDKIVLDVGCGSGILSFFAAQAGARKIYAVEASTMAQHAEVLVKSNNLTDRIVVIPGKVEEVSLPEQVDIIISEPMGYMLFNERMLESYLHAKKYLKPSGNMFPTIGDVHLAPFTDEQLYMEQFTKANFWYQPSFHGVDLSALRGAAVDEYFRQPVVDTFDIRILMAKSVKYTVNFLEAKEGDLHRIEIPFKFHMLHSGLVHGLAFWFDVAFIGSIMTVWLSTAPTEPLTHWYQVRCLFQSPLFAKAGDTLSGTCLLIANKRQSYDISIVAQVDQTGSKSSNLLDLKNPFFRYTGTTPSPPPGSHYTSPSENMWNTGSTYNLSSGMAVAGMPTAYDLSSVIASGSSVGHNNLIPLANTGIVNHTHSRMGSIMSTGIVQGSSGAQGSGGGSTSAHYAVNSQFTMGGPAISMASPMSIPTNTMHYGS
The following applies: KMS-11, at 3 µM.

Test [6] has as its target 5'-AMP-activated protein kinase catalytic subunit alpha-1 (Homo sapiens, UniProt Q13131). Nature of the test: Selectivity interaction (KinomeScan (DiscoverX)) EUB0000311b PRKAA1. The following applies: at 1 µM.
Test [7] has as its target Tyrosine-protein kinase Fgr (Homo sapiens) (UniProt P09769). In words: Selectivity interaction (Ambit KINOMEscan and KiNATiv profiling in Jurkat cells) EUB0000090b FGR. Format: cell-based. The following applies: at 1 µM.
Test [8] deals with ALK tyrosine kinase receptor (Homo sapiens, UniProt Q9UM73). In words: (§1) Selectivity interaction (KinomeScan (DiscoverX)) EUB0001049a ALK. The following applies: at 1 µM.
Test [9] relates to ALK tyrosine kinase receptor (Homo sapiens), Q9UM73 [C1156Y]. Described as §1. The following applies: at 1 µM.
For test [10], the system named is ALK tyrosine kinase receptor (Homo sapiens), Q9UM73 [L1196M]. The description is as §1. The following applies: at 1 µM.
The target of test [11] is Insulin-like growth factor 1 receptor (Homo sapiens, UniProt P08069). In words: Selectivity interaction (KinomeScan (DiscoverX)) EUB0000655a IGF1R. The following applies: at 10 µM.
The target in test [12] is RAC-alpha serine/threonine-protein kinase (Homo sapiens, UniProt P31749). In words: Selectivity interaction (KinomeScan (DiscoverX)) EUB0000618a AKT1. The following applies: at 10 µM.
For test [13], the target named is Ephrin type-A receptor 2 (Homo sapiens) (UniProt P29317). Nature of the test: Selectivity interaction (KinomeScan (DiscoverX)) EUB0000092b EPHA2. The following applies: at 10 µM.
Test [14] deals with T3, Tyrosine-protein kinase TXK (Homo sapiens) (UniProt P42681).
T3 sequence (whole entry): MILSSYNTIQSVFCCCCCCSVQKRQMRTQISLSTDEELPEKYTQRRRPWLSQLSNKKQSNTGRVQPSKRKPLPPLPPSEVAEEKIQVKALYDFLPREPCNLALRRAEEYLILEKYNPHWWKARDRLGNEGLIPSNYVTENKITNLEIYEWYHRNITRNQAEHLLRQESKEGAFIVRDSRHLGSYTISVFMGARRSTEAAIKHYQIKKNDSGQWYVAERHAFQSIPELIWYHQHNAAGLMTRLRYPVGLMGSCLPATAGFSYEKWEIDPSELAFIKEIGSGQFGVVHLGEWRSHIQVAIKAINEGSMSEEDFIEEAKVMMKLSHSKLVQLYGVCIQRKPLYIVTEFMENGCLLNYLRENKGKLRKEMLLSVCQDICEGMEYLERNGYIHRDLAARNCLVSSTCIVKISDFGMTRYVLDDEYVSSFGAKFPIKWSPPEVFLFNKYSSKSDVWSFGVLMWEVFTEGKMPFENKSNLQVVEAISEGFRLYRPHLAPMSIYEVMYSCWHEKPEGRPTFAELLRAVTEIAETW
In words: Selectivity interaction (KinomeScan (DiscoverX)) EUB0001079a TXK. The following applies: at 1 µM.

The target of test [15] is Phosphatidylinositol 4-kinase beta (Homo sapiens, UniProt Q9UBF8). Nature of the test: Selectivity interaction (Kinase panel (KiNativ target engagement assay in Jurkat cells)) EUB0001635a PI4KB. Format: cell-based. The following applies: Selectivity number of off-targets 0.0, Selectivity number of targets 233.0, Source Knowledge https://www.sciencedirect.com/science/article/pii/S2451945619300674?via%3Dihub, at 1 µM.
Sequence of Phosphatidylinositol 4-kinase beta (Q9UBF8 2-816 limits assumed): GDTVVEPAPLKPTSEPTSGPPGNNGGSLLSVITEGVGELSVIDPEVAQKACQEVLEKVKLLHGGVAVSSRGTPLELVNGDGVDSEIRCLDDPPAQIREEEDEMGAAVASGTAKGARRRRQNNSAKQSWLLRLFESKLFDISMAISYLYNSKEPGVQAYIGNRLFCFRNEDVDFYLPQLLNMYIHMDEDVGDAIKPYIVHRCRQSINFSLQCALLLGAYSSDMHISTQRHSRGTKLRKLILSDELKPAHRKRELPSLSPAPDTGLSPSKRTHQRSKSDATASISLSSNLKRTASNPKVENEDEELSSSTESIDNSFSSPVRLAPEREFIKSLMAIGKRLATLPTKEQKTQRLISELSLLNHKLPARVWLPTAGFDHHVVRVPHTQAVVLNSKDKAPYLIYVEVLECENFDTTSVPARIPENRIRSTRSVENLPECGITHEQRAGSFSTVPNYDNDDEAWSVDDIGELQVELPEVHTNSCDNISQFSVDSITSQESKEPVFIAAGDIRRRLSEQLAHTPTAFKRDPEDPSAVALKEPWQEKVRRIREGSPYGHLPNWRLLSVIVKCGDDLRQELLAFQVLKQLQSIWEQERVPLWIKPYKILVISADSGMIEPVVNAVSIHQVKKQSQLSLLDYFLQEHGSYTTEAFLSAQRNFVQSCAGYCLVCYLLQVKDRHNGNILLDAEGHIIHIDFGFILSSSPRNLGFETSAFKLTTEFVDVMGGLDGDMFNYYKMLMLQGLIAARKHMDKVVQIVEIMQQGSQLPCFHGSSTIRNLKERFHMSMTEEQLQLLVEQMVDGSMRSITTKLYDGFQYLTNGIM

Sequence of Mitogen-activated protein kinase 9 (P45984 whole entry, looked up): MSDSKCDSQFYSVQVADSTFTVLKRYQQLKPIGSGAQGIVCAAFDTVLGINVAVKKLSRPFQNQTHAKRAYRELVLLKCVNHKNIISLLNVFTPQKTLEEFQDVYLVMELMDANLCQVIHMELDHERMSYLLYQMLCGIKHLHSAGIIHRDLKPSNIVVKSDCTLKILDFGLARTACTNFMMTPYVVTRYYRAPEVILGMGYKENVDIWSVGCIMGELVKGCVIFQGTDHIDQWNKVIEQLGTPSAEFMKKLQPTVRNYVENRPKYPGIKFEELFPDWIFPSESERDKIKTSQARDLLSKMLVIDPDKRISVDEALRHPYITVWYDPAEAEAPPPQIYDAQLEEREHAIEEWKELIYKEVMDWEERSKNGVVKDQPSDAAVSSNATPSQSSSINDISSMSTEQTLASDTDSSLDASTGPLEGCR
Sequence of ALK tyrosine kinase receptor (Homo sapiens), Q9UM73 [L1196M] (Q9UM73 whole entry L1196M, looked up): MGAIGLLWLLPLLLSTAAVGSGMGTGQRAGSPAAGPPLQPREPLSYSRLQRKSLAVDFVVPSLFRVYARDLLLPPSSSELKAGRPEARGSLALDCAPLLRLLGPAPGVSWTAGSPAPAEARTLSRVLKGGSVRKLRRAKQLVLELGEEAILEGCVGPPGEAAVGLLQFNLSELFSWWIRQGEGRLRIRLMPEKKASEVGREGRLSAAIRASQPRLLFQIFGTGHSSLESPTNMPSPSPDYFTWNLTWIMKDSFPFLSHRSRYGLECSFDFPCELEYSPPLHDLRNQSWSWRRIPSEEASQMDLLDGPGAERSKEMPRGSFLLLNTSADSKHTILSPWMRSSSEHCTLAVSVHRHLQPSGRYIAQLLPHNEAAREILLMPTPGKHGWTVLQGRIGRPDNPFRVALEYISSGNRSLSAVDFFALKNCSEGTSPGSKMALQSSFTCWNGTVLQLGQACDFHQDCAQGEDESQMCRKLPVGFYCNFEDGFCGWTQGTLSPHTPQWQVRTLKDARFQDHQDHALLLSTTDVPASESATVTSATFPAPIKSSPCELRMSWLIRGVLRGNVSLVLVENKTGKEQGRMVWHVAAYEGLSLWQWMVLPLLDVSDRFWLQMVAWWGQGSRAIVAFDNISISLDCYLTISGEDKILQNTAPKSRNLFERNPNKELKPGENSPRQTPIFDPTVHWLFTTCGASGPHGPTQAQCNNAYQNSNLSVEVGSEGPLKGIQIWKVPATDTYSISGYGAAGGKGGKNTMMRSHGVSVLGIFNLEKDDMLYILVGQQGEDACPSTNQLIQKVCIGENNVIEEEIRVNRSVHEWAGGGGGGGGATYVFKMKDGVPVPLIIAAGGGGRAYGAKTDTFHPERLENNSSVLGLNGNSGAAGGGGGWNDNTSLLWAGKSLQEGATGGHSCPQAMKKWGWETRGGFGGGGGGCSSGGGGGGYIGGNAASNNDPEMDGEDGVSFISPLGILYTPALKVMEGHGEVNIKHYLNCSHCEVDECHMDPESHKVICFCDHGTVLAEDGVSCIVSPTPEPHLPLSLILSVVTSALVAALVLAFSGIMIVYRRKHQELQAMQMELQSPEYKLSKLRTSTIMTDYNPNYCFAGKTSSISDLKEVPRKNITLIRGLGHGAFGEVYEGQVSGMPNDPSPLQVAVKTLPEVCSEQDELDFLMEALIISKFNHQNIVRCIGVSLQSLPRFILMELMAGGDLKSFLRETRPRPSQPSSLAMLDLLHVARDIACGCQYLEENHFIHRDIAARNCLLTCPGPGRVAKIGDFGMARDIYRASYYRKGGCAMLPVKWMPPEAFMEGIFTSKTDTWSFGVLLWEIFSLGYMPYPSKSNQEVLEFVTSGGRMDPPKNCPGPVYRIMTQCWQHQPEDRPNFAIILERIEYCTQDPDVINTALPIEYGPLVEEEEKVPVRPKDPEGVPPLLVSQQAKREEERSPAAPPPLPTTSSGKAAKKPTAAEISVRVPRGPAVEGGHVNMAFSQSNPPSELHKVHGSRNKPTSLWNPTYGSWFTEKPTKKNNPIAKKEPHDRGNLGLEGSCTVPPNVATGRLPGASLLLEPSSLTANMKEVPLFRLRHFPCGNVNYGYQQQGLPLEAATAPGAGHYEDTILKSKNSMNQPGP
Sequence of 5'-AMP-activated protein kinase catalytic subunit alpha-1 (Q13131 whole entry, looked up): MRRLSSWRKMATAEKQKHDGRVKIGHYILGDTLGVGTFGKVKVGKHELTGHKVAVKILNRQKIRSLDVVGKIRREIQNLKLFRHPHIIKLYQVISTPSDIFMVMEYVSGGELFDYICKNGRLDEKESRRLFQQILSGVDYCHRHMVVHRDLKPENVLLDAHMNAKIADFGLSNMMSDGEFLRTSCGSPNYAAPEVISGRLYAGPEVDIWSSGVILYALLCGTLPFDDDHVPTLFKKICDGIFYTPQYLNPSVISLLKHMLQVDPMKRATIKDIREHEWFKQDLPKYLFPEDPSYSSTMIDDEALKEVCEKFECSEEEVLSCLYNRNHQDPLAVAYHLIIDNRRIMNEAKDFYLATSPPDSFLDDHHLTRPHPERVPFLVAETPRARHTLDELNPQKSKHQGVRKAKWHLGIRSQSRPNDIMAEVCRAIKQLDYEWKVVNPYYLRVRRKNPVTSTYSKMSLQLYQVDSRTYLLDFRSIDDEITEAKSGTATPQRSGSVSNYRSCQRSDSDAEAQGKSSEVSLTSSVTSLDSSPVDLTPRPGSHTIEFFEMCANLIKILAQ
Sequence of Ephrin type-A receptor 2 (Homo sapiens) (P29317 whole entry): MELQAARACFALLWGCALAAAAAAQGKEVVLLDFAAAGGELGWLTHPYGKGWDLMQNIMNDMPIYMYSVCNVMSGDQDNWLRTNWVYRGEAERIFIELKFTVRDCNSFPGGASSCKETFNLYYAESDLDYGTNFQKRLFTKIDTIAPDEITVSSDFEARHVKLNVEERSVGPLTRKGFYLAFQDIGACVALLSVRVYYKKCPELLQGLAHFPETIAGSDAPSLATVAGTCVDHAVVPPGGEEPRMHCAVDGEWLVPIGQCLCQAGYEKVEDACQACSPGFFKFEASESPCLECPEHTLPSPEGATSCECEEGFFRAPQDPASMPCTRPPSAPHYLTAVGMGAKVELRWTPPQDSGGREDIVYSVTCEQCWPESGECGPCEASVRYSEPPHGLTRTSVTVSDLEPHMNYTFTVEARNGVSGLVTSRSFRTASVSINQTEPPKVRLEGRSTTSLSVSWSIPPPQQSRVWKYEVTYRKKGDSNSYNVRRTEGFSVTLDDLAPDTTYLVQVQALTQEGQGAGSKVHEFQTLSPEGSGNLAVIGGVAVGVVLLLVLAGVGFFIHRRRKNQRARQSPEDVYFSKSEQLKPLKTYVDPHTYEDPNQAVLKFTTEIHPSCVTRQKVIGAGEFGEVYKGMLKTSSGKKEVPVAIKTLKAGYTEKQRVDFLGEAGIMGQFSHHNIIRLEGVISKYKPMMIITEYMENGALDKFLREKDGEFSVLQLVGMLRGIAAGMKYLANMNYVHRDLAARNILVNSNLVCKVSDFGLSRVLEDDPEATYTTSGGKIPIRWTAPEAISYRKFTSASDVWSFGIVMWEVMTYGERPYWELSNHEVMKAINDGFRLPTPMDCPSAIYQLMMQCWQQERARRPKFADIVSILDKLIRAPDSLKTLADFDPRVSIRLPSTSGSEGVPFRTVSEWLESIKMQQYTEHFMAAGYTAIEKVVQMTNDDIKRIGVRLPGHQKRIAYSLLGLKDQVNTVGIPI
Sequence of ALK tyrosine kinase receptor (Homo sapiens), Q9UM73 [C1156Y] (Q9UM73 whole entry C1156Y, looked up): as the sequence (Q9UM73 whole entry L1196M, looked up) above, with C1156Y, M1196L counted along it
Sequence of Calcium/calmodulin-dependent protein kinase kinase 2 (Homo sapiens) (Q96RR4 2-588 limits assumed): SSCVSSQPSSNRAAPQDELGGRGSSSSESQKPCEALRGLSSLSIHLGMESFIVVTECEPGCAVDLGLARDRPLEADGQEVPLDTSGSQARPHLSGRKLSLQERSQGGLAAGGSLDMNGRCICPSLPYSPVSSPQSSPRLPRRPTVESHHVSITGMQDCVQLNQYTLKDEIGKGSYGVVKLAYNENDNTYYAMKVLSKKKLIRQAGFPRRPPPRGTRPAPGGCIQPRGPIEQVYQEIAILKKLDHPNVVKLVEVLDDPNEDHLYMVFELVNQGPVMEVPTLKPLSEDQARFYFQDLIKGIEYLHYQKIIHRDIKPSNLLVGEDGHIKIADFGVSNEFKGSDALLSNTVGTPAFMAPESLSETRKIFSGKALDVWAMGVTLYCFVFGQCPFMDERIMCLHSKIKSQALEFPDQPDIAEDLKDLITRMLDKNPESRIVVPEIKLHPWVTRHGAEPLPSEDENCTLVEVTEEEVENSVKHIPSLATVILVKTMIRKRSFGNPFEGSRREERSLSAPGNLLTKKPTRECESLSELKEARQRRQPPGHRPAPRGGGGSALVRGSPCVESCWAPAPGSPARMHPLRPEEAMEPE

As to `O=C(NOC[C@H](O)CO)c1ccc(F)c(F)c1Nc1ccc(I)cc1F`, in test [1], the % of control was 100%.

`CNC(=O)Nc1ccc(-c2nc(N3CC4CCC(C3)O4)c3cnn(C4CCC5(CC4)OCCO5)c3n2)cc1`: the % of control in test [2] and in [3] was 100% each time.

In turn, `Cc1cc([C@@H](C)Nc2ccccc2C(=O)O)c2nc(N3CCOCC3)cc(=O)n2c1` [AZD-6482] displayed a % of control in test [4] of 66%.

With `CNCCN1CCC(c2cc(CN(C)C(=O)c3cccc(Oc4ccccc4)c3)ccn2)CC1`, the % of growth rate in [5] was -17.2%.

The compound `CCc1ccccc1C(=O)Nc1n[nH]c2c(C)c(F)c(C3C(C#N)=C(C)N(C)C(C)=C3C#N)cc12` [BAY-3827] returned a % of control in test [6] of 7.5%.

Compound `CN(C)C/C=C/C(=O)Nc1ccc(C(=O)N2CCCC(Nc3ncc(Cl)c(-c4c[nH]c5ccccc45)n3)C2)cc1` (stereo not given) came in with a % of control in test [7] of 92%.

Take `COc1cc(Nc2nc(C)cc(-c3cnn4nc(OC)ccc34)n2)cc(C(F)(F)F)c1`: the figures for the % of control in [8], in [9] and in test [10] were 94%, 89% and 100%, respectively.

The compound `CN(C)CCOc1ccc(-c2nc(-c3ccncc3)c(-c3ccc4c(c3)CC/C4=N\O)[nH]2)cc1` had a % of control in [11] of 100%.

With `O[C@H]1CC[C@H](Nc2ncc3nc(Nc4c(F)cc(F)cc4F)n([C@H]4CCOC4)c3n2)CC1`, the % of control in test [12] was found to be 72%.

As to `CCC(=O)N1CCN(c2ccc(-n3c(=O)ccc4cnc5ccc(-c6cnc7ccccc7c6)cc5c43)cc2C(F)(F)F)CC1`, in [13], the % of control is 59%.

Regarding `Nc1cnc(N2CCc3cc(S(=O)(=O)Nc4c(F)cc(Cl)cc4F)cc(N4CCCC4=O)c32)nc1` [TP-020n], the % of control in test [14] worked out at 83%.

For the compound `C=CC(=O)Nc1ccc(C(=O)Nc2[nH]nc3c2CN(C(=O)N[C@H](CN(C)C)c2ccccc2)C3(C)C)cc1`, in [15], the % of engagement is -11.3%.
